For this test, the target named is T1, EGFR TMLRCS (T790M/L858R/C797S) in BaF3-TMLRCS cell line (Homo sapiens, UniProt P00533, C797S/L858R/T790M).
T1 construct: host or cells: BaF3 (BaF3-TMLRCS cell line)
Description: HTRF Phospho EGFR TMLRCS Assay (Cellular). In kind it is cell-based. As to conditions: BaF3-TMLRCS cells, 4 hours incubation. As for the experimental part: HTRF Phospho EGFR TMLRCS Assay (Cellular)
BaF3-TMLRCS cell line were obtained from Crownbio (San Diego, Calif., USA). Cells were maintained at 37° C., 5% CO2 in RPMI ATCC (Gibco 31870)+2 mM Glutamine+0.5 μg/ml Puromycin supplemented with 10% fetal bovine serum (FBS) (Gibco).
Cells are transferred as above to Greiner Bio-One, Nr. 784-08 micro-titerplate at 20000 cells/well in 12.5 μl of growth medium/well after the plates had been pre-filled with 12.5 nl of DMSO solutions of the to be tested compounds (in dose response) or DMSO only. After spinning the plates at 300 ×g for 30 seconds the cells were incubated for 4 hours at 37 C, 5% CO2, 95% humidity. The cells were lysed by adding to the compound mix 4 μl/well of the supplemented lysis buffer (Cis-bio, Phospho-EGFR HTRF kit, 64EG1PEH), followed by incubation for 30 min at room temperature with shaking (400 rpm). The plates were then frozen and stored overnight at −80 C. […] The lidded plates were then incubated for 4 h at room temperature before reading the fluorescence emission at 616 and 665 nm using an Envision reader (Perkin Elmer). Data was analyzed in similar fashion as above using the normalized ratio of the 665 to 616 signals multiplied by 10000.
In general terms: Time-resolved FRET reads energy transfer from a long-lived donor to a nearby acceptor.

As usually defined, the IC50 is the concentration that inhibits the measured activity by half.

T1 sequence (P00533 25-1210 T790M/C797S/L858R): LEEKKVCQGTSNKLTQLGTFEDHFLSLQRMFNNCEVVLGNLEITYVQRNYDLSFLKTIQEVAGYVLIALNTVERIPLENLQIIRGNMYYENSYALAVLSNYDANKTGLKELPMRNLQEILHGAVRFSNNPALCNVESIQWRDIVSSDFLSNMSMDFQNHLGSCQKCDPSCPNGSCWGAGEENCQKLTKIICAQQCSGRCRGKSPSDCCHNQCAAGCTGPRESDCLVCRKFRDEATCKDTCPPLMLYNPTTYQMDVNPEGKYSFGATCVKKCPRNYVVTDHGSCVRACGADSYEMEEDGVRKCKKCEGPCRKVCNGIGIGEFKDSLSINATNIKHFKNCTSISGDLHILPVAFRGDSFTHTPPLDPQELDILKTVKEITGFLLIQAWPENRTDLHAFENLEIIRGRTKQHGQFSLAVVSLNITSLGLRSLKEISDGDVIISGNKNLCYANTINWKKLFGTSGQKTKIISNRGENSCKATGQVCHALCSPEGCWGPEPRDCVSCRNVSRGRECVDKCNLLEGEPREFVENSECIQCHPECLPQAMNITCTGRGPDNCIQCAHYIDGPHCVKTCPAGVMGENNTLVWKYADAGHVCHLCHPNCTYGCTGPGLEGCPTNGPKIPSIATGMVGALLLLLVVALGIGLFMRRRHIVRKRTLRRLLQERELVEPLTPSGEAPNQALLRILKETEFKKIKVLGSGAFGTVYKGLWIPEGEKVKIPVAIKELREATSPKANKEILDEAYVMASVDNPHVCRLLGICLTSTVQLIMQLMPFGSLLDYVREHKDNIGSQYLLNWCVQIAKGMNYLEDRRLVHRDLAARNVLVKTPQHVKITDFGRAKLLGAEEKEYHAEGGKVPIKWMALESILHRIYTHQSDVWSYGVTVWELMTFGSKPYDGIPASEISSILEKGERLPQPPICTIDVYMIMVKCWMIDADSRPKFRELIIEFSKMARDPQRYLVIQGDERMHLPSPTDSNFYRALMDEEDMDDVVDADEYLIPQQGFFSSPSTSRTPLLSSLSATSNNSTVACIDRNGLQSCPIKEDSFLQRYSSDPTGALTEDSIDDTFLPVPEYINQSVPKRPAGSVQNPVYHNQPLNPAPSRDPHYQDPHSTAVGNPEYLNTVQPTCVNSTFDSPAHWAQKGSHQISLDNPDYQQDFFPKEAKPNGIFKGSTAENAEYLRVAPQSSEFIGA

As for `O=C(Nc1nccs1)C(c1ncn2c1CCC2)N1Cc2c(cc(C#Cc3ccc(CN4CCC(O)CC4)cc3)cc2C(F)(F)F)C1=O` (racemic) [Example 1, (2RS)-2-(6,7-Dihydro-5H-pyrrolo[1,2-c]imidazol-1-yl)-2-[6-[2-[4-[(4-hydroxy-1-piperidyl)methyl]phenyl]ethynyl]-1-oxo-4-(trifluoromethyl)isoindolin-2-yl]-N-thiazol-2-yl-acetamide], inhibition was half-maximal at 14 nM (IC50).
